The record followed here is US10676479B2, “Imidazolepyridine compounds and uses thereof” (Novartis AG, priority 2016, dated 2020).

One assay addresses EED (1-441)-His protein (Homo sapiens (Human), UniProt O75530). As to the kind of experiment: EED-H3K27Me3 peptide competition binding assay by AlphaScreen. The note with it: EED Alphascreen binding Qualified assay. (In Alpha technology, singlet oxygen from a donor bead excites a nearby acceptor bead.)
Assay [1] addresses wild type PRC2 (wtPRC2) complex (Homo sapiens (Human), UniProt O75530). The assay can be described thus: EED LC-MS assay. The note with it: EED LC-MS Qualified assay; read-out: (b) IC50. The assay is classed as biochemical. The procedure:
EED LC-MS Assay Representative compounds of the present invention were serially and separately diluted 3-fold in DMSO to obtain a total of eight or twelve concentrations. […] A 6 μL solution of 3 μM of the peptide substrate H3K27Me0 (histone H3[21-44]-biotin) in reaction buffer was added to initiate each reaction. […] The data were then fit to a dose response equation using the program Helios to get the IC50 values of the test compound.

Assay [2] has as its system H3K27 methylation in G401 cell. The assay can be described thus: ELISA (H3K27 methylation) assay. The assay is classed as cell-based. The following applies: Homo sapiens, G-401, ELISA Qualified assay, 48 h, read-out: (c) IC50. An outline of the steps:
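G401 cells given 3-fold serial dilutions (eight or twelve points, top 20 μM) for 48 h. Lysate ELISA for H3K27 methylation normalized to H3 signal, % inhibition versus DMSO, IC50 from dose-response fit.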
Background: ELISA stands for enzyme-linked immunosorbent assay.

Chain of wild type PRC2 (wtPRC2) complex (O75530 whole entry): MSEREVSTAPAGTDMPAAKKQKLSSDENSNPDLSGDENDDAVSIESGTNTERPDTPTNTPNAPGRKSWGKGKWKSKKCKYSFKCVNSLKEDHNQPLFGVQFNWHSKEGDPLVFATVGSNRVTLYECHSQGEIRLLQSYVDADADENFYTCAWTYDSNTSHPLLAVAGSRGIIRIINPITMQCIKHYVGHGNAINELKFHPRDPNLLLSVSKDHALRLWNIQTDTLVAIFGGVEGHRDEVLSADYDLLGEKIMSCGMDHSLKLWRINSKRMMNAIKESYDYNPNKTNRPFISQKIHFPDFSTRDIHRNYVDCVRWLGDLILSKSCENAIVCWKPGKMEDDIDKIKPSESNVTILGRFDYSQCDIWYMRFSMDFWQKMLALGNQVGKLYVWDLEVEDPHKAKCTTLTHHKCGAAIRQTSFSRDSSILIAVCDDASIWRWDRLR
Chain of wild type PRC2 (wtPRC2) complex (Q15910 whole entry partner): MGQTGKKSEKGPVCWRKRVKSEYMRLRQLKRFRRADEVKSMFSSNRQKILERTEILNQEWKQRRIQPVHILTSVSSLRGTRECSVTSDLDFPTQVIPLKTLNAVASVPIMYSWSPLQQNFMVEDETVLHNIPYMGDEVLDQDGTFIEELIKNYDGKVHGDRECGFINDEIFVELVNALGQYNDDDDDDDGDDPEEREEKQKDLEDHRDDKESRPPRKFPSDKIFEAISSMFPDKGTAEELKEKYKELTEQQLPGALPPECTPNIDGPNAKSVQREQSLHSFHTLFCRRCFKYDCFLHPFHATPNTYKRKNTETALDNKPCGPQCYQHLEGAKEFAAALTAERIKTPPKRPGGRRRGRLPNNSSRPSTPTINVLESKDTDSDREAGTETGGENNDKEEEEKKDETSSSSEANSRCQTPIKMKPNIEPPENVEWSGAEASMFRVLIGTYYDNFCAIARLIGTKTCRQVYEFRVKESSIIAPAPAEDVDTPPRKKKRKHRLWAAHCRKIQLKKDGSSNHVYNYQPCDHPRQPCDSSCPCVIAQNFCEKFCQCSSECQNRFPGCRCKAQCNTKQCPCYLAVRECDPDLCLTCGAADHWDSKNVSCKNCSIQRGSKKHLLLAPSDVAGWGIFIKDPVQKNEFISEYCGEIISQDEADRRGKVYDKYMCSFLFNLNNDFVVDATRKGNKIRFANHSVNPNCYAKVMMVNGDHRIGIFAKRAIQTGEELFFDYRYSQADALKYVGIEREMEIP
Chain of wild type PRC2 (wtPRC2) complex (Q15022 whole entry partner): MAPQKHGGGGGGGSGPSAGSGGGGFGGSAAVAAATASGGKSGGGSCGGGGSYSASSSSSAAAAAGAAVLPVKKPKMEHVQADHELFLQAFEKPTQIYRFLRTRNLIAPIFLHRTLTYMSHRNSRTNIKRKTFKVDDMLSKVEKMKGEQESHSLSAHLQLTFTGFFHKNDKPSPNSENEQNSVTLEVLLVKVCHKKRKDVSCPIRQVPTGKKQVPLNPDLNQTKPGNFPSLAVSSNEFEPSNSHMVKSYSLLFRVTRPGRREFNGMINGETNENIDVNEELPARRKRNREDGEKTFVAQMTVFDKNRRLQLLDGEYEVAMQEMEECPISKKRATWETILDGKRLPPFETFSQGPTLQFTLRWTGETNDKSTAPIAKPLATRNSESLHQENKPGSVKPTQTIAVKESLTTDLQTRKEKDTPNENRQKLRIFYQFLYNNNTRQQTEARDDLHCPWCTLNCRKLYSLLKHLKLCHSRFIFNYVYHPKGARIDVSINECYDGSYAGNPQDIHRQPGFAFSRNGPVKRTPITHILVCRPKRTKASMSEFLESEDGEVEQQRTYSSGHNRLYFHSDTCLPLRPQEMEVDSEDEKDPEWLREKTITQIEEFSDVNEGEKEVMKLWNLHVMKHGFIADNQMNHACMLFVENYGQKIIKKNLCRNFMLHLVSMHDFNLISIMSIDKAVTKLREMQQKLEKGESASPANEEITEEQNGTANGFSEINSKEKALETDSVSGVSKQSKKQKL
Chain of EED (1-441)-His protein (O75530 whole entry): as the sequence (O75530 whole entry) above

Usually IC50 stands for the concentration that inhibits the measured activity by half. Regarding `Cc1c(-c2cnc(NCc3c(F)ccc4c3CCO4)n3cncc23)ccnc1CF` [Example 58, N-((5-fluoro-2,3-dihydrobenzofuran-4-yl)methyl)-8-(2-(fluoromethyl)-3-methylpyridin-4-yl)imidazo[1,5-c]pyrimidin-5-amine], the IC50 on EED (1-441)-His protein came out at 14.9 nM; in assay [1], 25.2 nM; in assay [2] it was 36.1 nM.

For the compound `Cc1nc(C(F)(F)CN2CCCC2)ccc1-c1cnc(NCc2c(F)ccc3c2CCO3)n2cncc12` [Example 59, 8-(6-(1,1-difluoro-2-(pyrrolidin-1-yl)ethyl)-2-methylpyridin-3-yl)-N-((5-fluoro-2,3-dihydrobenzofuran-4-yl)methyl)imidazo[1,5-c]pyrimidin-5-amine], the IC50 at EED (1-441)-His protein came out at 13 nM; in assay [1], 25.5 nM; in assay [2], 98.7 nM.

Turning to `Fc1ccc2c(c1CNc1ncc(-c3ccc(C(F)F)nc3)c3cncn13)CCO2` [Example 60, 8-(6-(difluoromethyl)pyridin-3-yl)-N-((5-fluoro-2,3-dihydrobenzofuran-4-yl)methyl)imidazo[1,5-c]pyrimidin-5-amine], the results for the IC50 (at EED (1-441)-His protein; in assay [1]; in assay [2]) were 15.3 nM, 11.3 nM and 52.1 nM, respectively.

Consider `Cc1nc(OC(C)C)ncc1-c1cnc(NCc2c(F)ccc3c2CCO3)n2cncc12` [Example 61, N-((5-fluoro-2,3-dihydrobenzofuran-4-yl)methyl)-8-(2-isopropoxy-4-methylpyrimidin-5-yl)imidazo[1,5-c]pyrimidin-5-amine], for which the IC50 was 8.3 nM on EED (1-441)-His protein, 19.1 nM in assay [1] and 22.5 nM in assay [2].

For the compound `Cc1cn(-c2cnc(NCc3c(F)ccc4c3CCO4)n3cncc23)cn1` [Example 62, N-((5-fluoro-2,3-dihydrobenzofuran-4-yl)methyl)-8-(4-methyl-1H-imidazol-1-yl)imidazo[1,5-c]pyrimidin-5-amine], the IC50 at EED (1-441)-His protein turned out to be 3.7 nM; in assay [1] it was 6.6 nM; in assay [2] it was 13.2 nM.

For the compound `Cc1nc(C(=O)N(C)C)ccc1-c1cnc(NCc2c(F)ccc3c2CCO3)n2cncc12` [Example 63, 5-(5-(((5-fluoro-2,3-dihydrobenzofuran-4-yl)methyl)amino)imidazo[1,5-c]pyrimidin-8-yl)-N,N,6-trimethylpicolinamide], the IC50 on EED (1-441)-His protein worked out at 9.5 nM; in assay [1] it was 26.7 nM; in assay [2], 61.8 nM.

For the compound `CN(C)Cc1ccc(-c2cnc(NCc3cccc4occc34)n3cncc23)cc1` [Example 64, N-(benzofuran-4-ylmethyl)-8-(4-((dimethylamino)methyl)phenyl)imidazo[1,5-c]pyrimidin-5-amine], the IC50 on EED (1-441)-His protein is 55.4 nM; in assay [1], 54.7 nM; in assay [2], 403 nM.

Regarding `c1cc(CNc2ncc(-c3ccncc3)c3cncn23)c2ccoc2c1` [Example 65, N-(benzofuran-4-ylmethyl)-8-(pyridin-4-yl)imidazo[1,5-c]pyrimidin-5-amine], the IC50 amounted to 285 nM on EED (1-441)-His protein, 93.2 nM in assay [1] and 641 nM in assay [2].

Regarding `c1cc(CNc2ncc(-c3ccc(N4CCNCC4)nc3)c3cncn23)c2ccoc2c1` [Example 66, N-(benzofuran-4-ylmethyl)-8-(6-(piperazin-1-yl)pyridin-3-yl)imidazo[1,5-c]pyrimidin-5-amine], the IC50 at EED (1-441)-His protein was determined as 72.1 nM; in assay [1], 49.3 nM; in assay [2] it was 444 nM.

As to `CN(C)Cc1ccc(-c2cnc(NCc3c(F)ccc4occc34)n3cncc23)cc1` [Example 67, 8-(4-((dimethylamino)methyl)phenyl)-N-((5-fluorobenzofuran-4-yl)methyl)imidazo[1,5-c]pyrimidin-5-amine], the figures for the IC50 (on EED (1-441)-His protein; in assay [1]; in assay [2]) were 57.6 nM, 70.3 nM and 350 nM, respectively.

`Cc1ncccc1-c1cnc(NCc2c(F)ccc3c2CCO3)n2cnc(C#N)c12` [Example 69, 5-(((5-fluoro-2,3-dihydrobenzofuran-4-yl)methyl)amino)-8-(2-methylpyridin-3-yl)imidazo[1,5-c]pyrimidine-1-carbonitrile]: the IC50 on EED (1-441)-His protein came out at 9 nM; in assay [1], 14.1 nM; in assay [2], 14.7 nM.

With `N#Cc1ncn2c(NCc3c(F)ccc4c3CCO4)ncc(Br)c12` [Example 70, 8-bromo-5-(((5-fluoro-2,3-dihydrobenzofuran-4-yl)methyl)amino)imidazo[1,5-c]pyrimidine-1-carbonitrile], the IC50 on EED (1-441)-His protein came out at 27.9 nM; in assay [1], 48.6 nM; in assay [2], 86.8 nM.

With `N#Cc1ncn2c(NCc3c(F)ccc4c3CCO4)ncc(-c3ccc(CN4CCCC4)cc3)c12` [Example 71, 5-(((5-fluoro-2,3-dihydrobenzofuran-4-yl)methyl)amino)-8-(4-(pyrrolidin-1-ylmethyl)phenyl)imidazo[1,5-c]pyrimidine-1-carbonitrile], the IC50 at EED (1-441)-His protein was 7.9 nM; in assay [1] it was 18 nM; in assay [2], 4.1 nM.

For the compound `Cc1ccc(-c2cnc(NCc3c(F)ccc4c3CCO4)n3cnc(C#N)c23)cn1` [Example 72, 5-(((5-fluoro-2,3-dihydrobenzofuran-4-yl)methyl)amino)-8-(6-methylpyridin-3-yl)imidazo[1,5-c]pyrimidine-1-carbonitrile], the IC50 at EED (1-441)-His protein turned out to be 10.8 nM; in assay [1] it was 20.3 nM; in assay [2], 22 nM.

`N#Cc1ncn2c(NCc3c(F)ccc4c3CCO4)ncc(-c3cccnc3C(F)F)c12` [Example 73, 8-(2-(difluoromethyl)pyridin-3-yl)-5-(((5-fluoro-2,3-dihydrobenzofuran-4-yl)methyl)amino)imidazo[1,5-c]pyrimidine-1-carbonitrile]: the values for the IC50 (on EED (1-441)-His protein; in assay [1]; in assay [2]) were 23.5 nM, 56.4 nM and 55.3 nM, respectively.

For the compound `N#Cc1ncn2c(NCc3c(F)ccc4c3CCO4)ncc(-c3cccnc3)c12` [Example 74, 5-(((5-fluoro-2,3-dihydrobenzofuran-4-yl)methyl)amino)-8-(pyridin-3-yl)imidazo[1,5-c]pyrimidine-1-carbonitrile], the IC50 at EED (1-441)-His protein is 5.9 nM; in assay [1], 15.6 nM; in assay [2], 7 nM.

On to `Cc1ccc(-c2cnc(NCc3c(F)ccc4c3CCO4)n3cnc(C#N)c23)c(C)n1` [Example 75, 8-(2,6-dimethylpyridin-3-yl)-5-(((5-fluoro-2,3-dihydrobenzofuran-4-yl)methyl)amino)imidazo[1,5-c]pyrimidine-1-carbonitrile], for which the figures for the IC50 (on EED (1-441)-His protein; in assay [1]; in assay [2]) were 8.4 nM, 16.7 nM and 45.5 nM, respectively.

As to `CC(c1ccc(-c2cnc(NCc3c(F)ccc4c3CCO4)n3cnc(C#N)c23)cc1)N1CCCC1` (stereo not drawn) [Example 76, 5-(((5-fluoro-2,3-dihydrobenzofuran-4-yl)methyl)amino)-8-(4-(1-(pyrrolidin-1-yl)ethyl)phenyl)imidazo[1,5-c]pyrimidine-1-carbonitrile], the IC50 worked out at 5.6 nM at EED (1-441)-His protein, 15.3 nM in assay [1] and 5.4 nM in assay [2].

As to `N#Cc1ncn2c(NCc3c(F)ccc4c3CCO4)ncc(-c3cccnc3CO)c12` [Example 78, 5-(((5-fluoro-2,3-dihydrobenzofuran-4-yl)methyl)amino)-8-(2-(hydroxymethyl)pyridin-3-yl)imidazo[1,5-c]pyrimidine-1-carbonitrile], the values for the IC50 (on EED (1-441)-His protein; in assay [1]; in assay [2]) were 5.1 nM, 16.2 nM and 17.9 nM, respectively.

As for `CS(=O)(=O)c1ccc(-c2cnc(NCc3c(F)ccc4c3CCO4)n3cnc(C#N)c23)cn1` [Example 79, 5-(((5-fluoro-2,3-dihydrobenzofuran-4-yl)methyl)amino)-8-(6-(methylsulfonyl)pyridin-3-yl)imidazo[1,5-c]pyrimidine-1-carbonitrile], the results for the IC50 (on EED (1-441)-His protein; in assay [1]; in assay [2]) were 5.3 nM, 16.7 nM and 6.6 nM, respectively.

As for `CCC(O)c1ncc(-c2cnc(NCc3c(F)ccc4c3CCO4)n3cnc(C#N)c23)c(C)n1` (stereo not drawn) [Example 80, 5-(((5-fluoro-2,3-dihydrobenzofuran-4-yl)methyl)amino)-8-(2-(1-hydroxypropyl)-4-methylpyrimidin-5-yl)imidazo[1,5-c]pyrimidine-1-carbonitrile], the IC50 on EED (1-441)-His protein amounted to 10.5 nM; in assay [1], 34.5 nM; in assay [2], 14.2 nM.

For `N#Cc1ncn2c(NCc3c(F)ccc4c3CCO4)ncc(-c3ccc(N4CCOCC4)nc3)c12` [Example 82, 5-(((5-fluoro-2,3-dihydrobenzofuran-4-yl)methyl)amino)-8-(6-morpholinopyridin-3-yl)imidazo[1,5-c]pyrimidine-1-carbonitrile], the figures for the IC50 (on EED (1-441)-His protein; in assay [1]; in assay [2]) were 8.3 nM, 18.1 nM and 6.8 nM, respectively.

As for `Cc1nc(N2CC(C)NC(C)C2)ncc1-c1cnc(NCc2c(F)ccc3c2CCO3)n2cnc(C#N)c12` (stereo not drawn) [Example 83, 8-(2-(3,5-dimethylpiperazin-1-yl)-4-methylpyrimidin-5-yl)-5-(((5-fluoro-2,3-dihydrobenzofuran-4-yl)methyl)amino)imidazo[1,5-c]pyrimidine-1-carbonitrile], the IC50 on EED (1-441)-His protein amounted to 2.3 nM; in assay [1], 5.7 nM; in assay [2], 13.1 nM.

For the compound `Cc1nc(N2CCOCC2)ncc1-c1cnc(NCc2c(F)ccc3c2CCO3)n2cnc(C#N)c12` [Example 84, 5-(((5-fluoro-2,3-dihydrobenzofuran-4-yl)methyl)amino)-8-(4-methyl-2-morpholinopyrimidin-5-yl)imidazo[1,5-c]pyrimidine-1-carbonitrile], the results for the IC50 (at EED (1-441)-His protein; in assay [1]; in assay [2]) were 2.4 nM, 11 nM and 11.7 nM, respectively.
